Counter-ions that a name gives are not always drawn. ± gives the standard deviation of the averaged measurements.
System: MES-SA
Test: relative viability vs DMSO control (72 h) (fraction); higher = more viable cells
Outline: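 Sarcoma cell lines were seeded in 384-well plates at densities chosen for 80–90% confluence, then 24 h later given 2.5 µl of serially diluted compound drawn from source plates spanning 10 mM to 0.0002 mM. They were held 72 h at 37 °C, 5% CO2, with 0.1% DMSO vehicle and a 5 µM positive control included. Relative viability was read with ATPLite as percent growth and averaged over up to triplicate wells. Rescaling placed full at 1 and none at 0.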

| Compound | relative viability (0.00017 µM) | relative viability (0.00051 µM) | relative viability (0.00152 µM) | relative viability (0.00457 µM) | relative viability (0.01372 µM) | relative viability (0.04115 µM) | relative viability (0.1235 µM) | relative viability (0.3704 µM) | relative viability (1.111 µM) | relative viability (3.333 µM) | relative viability (10 µM) | relative viability (2 pM) | relative viability (5 pM) | relative viability (15 pM) | relative viability (50 pM) | relative viability (0.00014 µM) | relative viability (0.00041 µM) | relative viability (0.0012 µM) | relative viability (0.0037 µM) | relative viability (0.011 µM) | relative viability (200 fM) | relative viability (600 fM) |
| --- | --- | --- | --- | --- | --- | --- | --- | --- | --- | --- | --- | --- | --- | --- | --- | --- | --- | --- | --- | --- | --- | --- |
| COc1cccc2c1C(=O)c1c(O)c3c(c(O)c1C2=O)C[C@@](O)(C(=O)CO)C[C@@H]3O[C@H]1C[C@H](N)[C@H](O)[C@H](C)O1 [Doxorubicin Hydrochloride] | 0.975 ± 0.028 | 0.937 ± 0.042 | 0.934 ± 0.024 | 0.89 ± 0.024 | 0.66 ± 0.036 | 0.39 ± 0.0073 | 0.313 ± 0.01 | 0.201 ± 0.0045 | 0.0143 ± 0.0029 | 0.0402 ± 0.002 | 0.03487 ± 0.00029 |  |  |  |  |  |  |  |  |  |  |  |
| CO[C@H]1C[C@@H]2CC[C@@H](C)[C@@](O)(O2)C(=O)C(=O)N2CCCC[C@H]2C(=O)O[C@H]([C@H](C)C[C@@H]2CC[C@@H](OP(C)(C)=O)[C@H](OC)C2)CC(=O)[C@H](C)/C=C(\C)[C@@H](O)[C@@H](OC)C(=O)[C@H](C)C[C@H](C)/C=C/C=C/C=C/1C [Ridaforolimus] | 0.888 ± 0.04 | 0.827 ± 0.055 | 0.599 ± 0.0079 | 0.489 ± 0.015 | 0.423 ± 0.021 | 0.403 ± 0.024 | 0.4 ± 0.0088 | 0.368 ± 0.027 | 0.376 ± 0.0059 | 0.367 ± 0.023 | 0.374 ± 0.024 |  |  |  |  |  |  |  |  |  |  |  |
| Cc1cc(C)c(/C=C2\C(=O)Nc3ccccc32)[nH]1 [Semaxanib] | 0.908 ± 0.058 | 0.866 ± 0.02 | 0.866 ± 0.022 | 0.892 ± 0.027 | 0.882 ± 0.04 | 0.861 ± 0.061 | 0.871 ± 0.059 | 0.895 ± 0.035 | 0.889 ± 0.044 | 0.867 ± 0.041 | 0.798 ± 0.048 |  |  |  |  |  |  |  |  |  |  |  |
| CN1CCC(COc2cnc(-c3cccc(Cn4nc(-c5cccc(C#N)c5)ccc4=O)c3)nc2)CC1 [Tepotinib] | 0.962 ± 0.038 | 0.959 ± 0.0044 | 0.95 ± 0.023 | 0.974 ± 0.033 | 0.955 ± 0.043 | 0.928 ± 0.035 | 0.939 ± 0.028 | 0.9528 ± 0.0065 | 0.94 ± 0.042 | 0.875 ± 0.027 | 0.752 ± 0.024 |  |  |  |  |  |  |  |  |  |  |  |
| COc1cc2c(Oc3ccc4[nH]c(C)cc4c3F)ncnc2cc1OCCCN1CCCC1 [Cediranib] | 0.944 ± 0.036 | 0.934 ± 0.065 | 0.949 ± 0.041 | 0.929 ± 0.037 | 0.967 ± 0.012 | 0.95 ± 0.02 | 0.9503 ± 0.0085 | 0.966 ± 0.029 | 0.774 ± 0.037 | 0.619 ± 0.02 | 0.257 ± 0.023 |  |  |  |  |  |  |  |  |  |  |  |
| C[C@@H](c1ccc2nccn2c1)n1nnc2ncc(-c3cnn(C)c3)nc21 [Volitinib] | 0.91 ± 0.021 | 0.92 ± 0.053 | 0.97 ± 0.022 | 0.927 ± 0.043 | 0.959 ± 0.019 | 0.957 ± 0.026 | 0.929 ± 0.039 | 0.949 ± 0.029 | 0.926 ± 0.018 | 0.942 ± 0.018 | 0.902 ± 0.035 |  |  |  |  |  |  |  |  |  |  |  |
| CC1(C)CNc2cc(NC(=O)c3cccnc3NCc3ccncc3)ccc21 [Motesanib] | 0.93 ± 0.044 | 0.946 ± 0.034 | 0.962 ± 0.01 | 0.937 ± 0.023 | 0.949 ± 0.061 | 0.947 ± 0.047 | 0.961 ± 0.02 | 1 ± 0.044 | 0.96 ± 0.035 | 0.948 ± 0.013 | 0.849 ± 0.041 |  |  |  |  |  |  |  |  |  |  |  |
| N#CC[C@H](C1CCCC1)n1cc(-c2ncnc3[nH]ccc23)cn1 [Ruxolitinib] | 1.02 ± 0.024 | 1.01 ± 0.024 | 0.997 ± 0.015 | 0.962 ± 0.058 | 0.992 ± 0.03 | 0.979 ± 0.058 | 0.957 ± 0.042 | 0.981 ± 0.02 | 0.84 ± 0.04 | 0.825 ± 0.042 | 0.679 ± 0.035 |  |  |  |  |  |  |  |  |  |  |  |
| Cc1nc(NC(=O)N2CCC[C@H]2C(N)=O)sc1-c1ccnc(C(C)(C)C(F)(F)F)c1 [Alpelisib] | 0.884 ± 0.046 | 0.909 ± 0.053 | 0.901 ± 0.01 | 0.88 ± 0.052 | 0.879 ± 0.033 | 0.843 ± 0.034 | 0.774 ± 0.014 | 0.64 ± 0.016 | 0.526 ± 0.019 | 0.43 ± 0.015 | 0.323 ± 0.0056 |  |  |  |  |  |  |  |  |  |  |  |
| CN1CCN(c2ccc3nc(-c4c(N)c5c(F)cccc5[nH]c4=O)[nH]c3c2)CC1 [Dovitinib] | 0.945 ± 0.032 | 0.974 ± 0.029 | 0.95 ± 0.021 | 0.95 ± 0.017 | 0.9483 ± 0.0052 | 0.9283 ± 0.009 | 0.921 ± 0.04 | 0.836 ± 0.041 | 0.4858 ± 0.0047 | 0.191 ± 0.012 | 0.0897 ± 0.0022 |  |  |  |  |  |  |  |  |  |  |  |
| COc1cc2c(cc1O)CCN[C@]21CS[C@@H]2c3c(OC(C)=O)c(C)c4c(c3[C@H](COC1=O)N1[C@@H]2[C@H]2c3c(cc(C)c(OC)c3O)C[C@@H]([C@@H]1O)N2C)OCO4 [Trabectedin] |  |  |  |  |  |  |  |  |  |  |  | 0.939 ± 0.021 | 0.903 ± 0.022 | 0.886 ± 0.036 | 0.819 ± 0.039 | 0.667 ± 0.049 | 0.471 ± 0.025 | 0.0389 ± 0.024 | 0.0573 ± 0.00061 | 0.0496 ± 0.003 | 0.997 ± 0.015 | 0.963 ± 0.015 |
| C=CC(=O)Nc1cccc(Oc2nc(Nc3ccc(N4CCN(C)CC4)cc3)nc3ccsc23)c1 [Olmutinib] | 0.931 ± 0.038 | 0.964 ± 0.027 | 0.916 ± 0.037 | 0.937 ± 0.055 | 0.918 ± 0.036 | 0.955 ± 0.045 | 0.968 ± 0.035 | 0.954 ± 0.012 | 0.9273 ± 0.0055 | 0.751 ± 0.029 | 0.448 ± 0.025 |  |  |  |  |  |  |  |  |  |  |  |
| CC(C)NC(=O)C1CCC(n2c(NC(=O)c3ccc(F)cc3)nc3ccc(CN4CCC(C(C)(C)O)CC4)cc32)CC1 (centres undefined) [Belizatinib] | 0.942 ± 0.023 | 0.92 ± 0.026 | 0.934 ± 0.012 | 0.957 ± 0.023 | 0.932 ± 0.018 | 0.9451 ± 0.0052 | 0.9316 ± 0.0039 | 0.934 ± 0.037 | 0.824 ± 0.022 | 0.523 ± 0.024 | 0.148 ± 0.016 |  |  |  |  |  |  |  |  |  |  |  |
| CCN1CCN(Cc2ccc(Nc3ncc(F)c(-c4cc(F)c5nc(C)n(C(C)C)c5c4)n3)nc2)CC1 [Abemaciclib] | 0.883 ± 0.026 | 0.901 ± 0.035 | 0.878 ± 0.02 | 0.873 ± 0.031 | 0.876 ± 0.05 | 0.84 ± 0.046 | 0.736 ± 0.037 | 0.61 ± 0.031 | 0.435 ± 0.012 | 0.361 ± 0.0072 | 0.348 ± 0.023 |  |  |  |  |  |  |  |  |  |  |  |
| COc1c(OCCCN2CCOCC2)ccc2c1N=C(NC(=O)c1cnc(N)nc1)N1CCN=C21 [Copanlisib] | 0.966 ± 0.029 | 0.926 ± 0.031 | 0.9 ± 0.019 | 0.633 ± 0.029 | 0.502 ± 0.016 | 0.374 ± 0.0084 | 0.273 ± 0.0095 | 0.164 ± 0.0066 | 0.147 ± 0.0029 | 0.18 ± 0.0026 | 0.159 ± 0.0078 |  |  |  |  |  |  |  |  |  |  |  |
| Cc1nc(-c2cn3c(n2)-c2ccc(-c4cnn(C(C)(C)C(N)=O)c4)cc2OCC3)n(C(C)C)n1 [Taselisib] | 0.901 ± 0.028 | 0.9023 ± 0.004 | 0.887 ± 0.033 | 0.858 ± 0.021 | 0.797 ± 0.035 | 0.692 ± 0.01 | 0.504 ± 0.015 | 0.386 ± 0.014 | 0.299 ± 0.0098 | 0.214 ± 0.0027 | 0.146 ± 0.0072 |  |  |  |  |  |  |  |  |  |  |  |
| O=C(Cc1ccc(-c2ccc(OCCN3CCOCC3)cc2)cn1)NCc1ccccc1 [KX2-391] | 0.988 ± 0.041 | 0.976 ± 0.018 | 0.946 ± 0.018 | 0.949 ± 0.026 | 0.9439 ± 0.0022 | 0.448 ± 0.042 | 0.2711 ± 0.0024 | 0.179 ± 0.0046 | 0.143 ± 0.0031 | 0.133 ± 0.004 | 0.13 ± 0.0027 |  |  |  |  |  |  |  |  |  |  |  |
| C[C@@H]1COCCN1c1cc(-c2ccnn2C)c2ccnc(-c3ccn[nH]3)c2n1 | 0.952 ± 0.028 | 0.934 ± 0.025 | 0.9269 ± 0.0056 | 0.924 ± 0.028 | 0.878 ± 0.013 | 0.752 ± 0.019 | 0.489 ± 0.012 | 0.31 ± 0.022 | 0.175 ± 0.0043 | 0.122 ± 0.0046 | 0.113 ± 0.003 |  |  |  |  |  |  |  |  |  |  |  |
| Cc1cnc(Nc2ccc(OCCN3CCCC3)cc2)nc1Nc1cccc(S(=O)(=O)NC(C)(C)C)c1 [Fedratinib] | 0.966 ± 0.046 | 0.959 ± 0.035 | 0.953 ± 0.026 | 0.937 ± 0.029 | 0.949 ± 0.025 | 0.907 ± 0.018 | 0.861 ± 0.018 | 0.679 ± 0.03 | 0.2659 ± 0.0019 | 0.18 ± 0.0027 | 0.028 ± 0.0026 |  |  |  |  |  |  |  |  |  |  |  |

Source: the supplement of paper PMC10883282
